Data: EP1285659A1, “Use of clarithromycin compositions in the manufacture of a medicament for the treatment of arthritis deformans” (Fondazione Salvatore Maugeri, priority 2001, dated 2003)
Like-named read-outs stand apart in the source and are kept apart here.

Type: in vivo, patients
From the text: The clinical experimentation has been carried out on 18 patients of which 14 females and 4 males, having an average age equal to 62 years selected by the inclusion and exclusion criteria as hereinafter reported. The patients submitted to the clinical experimentation suffered from arthritis deformans diagnosed according to the ARA International Criteria since at least two years, belonging to the 2th and 3rd functional classes according to Steinbrocker. The disease was clinically active notwithstanding the use of drugs known as Disease-Modifying AntiRheumatic Drugs ([…]) able to modify the course of the illness such as for example methotrexate azathioprine, chloroquine, hydroxychloroquine and ciclosporin and notwithstanding the use of steroid and not steroid anti-inflammatory drugs. The patients suffering from arthritis deformans of 4th functional class according to Steinbrocker have been excluded from the experimentation that is the patients invalid with permanent injuries, the patients with associated serious systemic diseases, relevant psychiatric and neuropathic diseases, the drug addicts, the patients suffering from hypersensitivity to the macrolides and the patients under treatment with carbamazepine, ciclosporin and antihistamines. The clarithromycin administration started after the suspension of the Disease-Modifying AntiRheumatic Drugs since one month. In six patients who were assuming a steroid anti-inflammatory drug since at least two weeks, the administration of the same steroid drug with a 6 mg dose of prednisonic equivalent has been associated to the administration of clarithromycin. The administration of clarithromycin was 500 mg twice a day for 8-14 days and subsequently a customized dosage from 500 to 2,000 mg per day in one or two administrations has been applied. The control of the patients has been periodically carried out on 0, 10, 30, 60, 90 and 180 days by medical examination and determination of the haematochemical and functional indexes. In particular the following indexes have been controlled: • HAQ (Health Assessment Questionnaire, 1986), internationally validated as reference functional index in the rheumatic disease; • VAS (Visuanalogic Ache Scale according to Scott Huskisson); • ESR (Erythro Sedimentation Rate).

[1] = Day 180, clarithromycin 500 mg twice a day for 8-14 days, then 500 to 2,000 mg per day, p < 0.05 (Mann-Whitney U test)

CC[C@H]1OC(=O)[C@H](C)[C@@H](O[C@H]2C[C@@](C)(OC)[C@@H](O)[C@H](C)O2)[C@H](C)[C@@H](O[C@@H]2O[C@H](C)C[C@H](N(C)C)[C@H]2O)[C@](C)(OC)C[C@@H](C)C(=O)[C@H](C)[C@@H](O)[C@]1(C)O [clarithromycin]
ESR (Day 0 (baseline, before clarithromycin), 18 patients, Erythro Sedimentation Rate): 44.8 ± 8.4
HAQ (Day 0 (baseline, before clarithromycin), 18 patients, Health Assessment Questionnaire): 20.2 ± 2.6
VAS (Day 0 (baseline, before clarithromycin), 18 patients, Visuanalogic Ache Scale according to Scott Huskisson): 4.7 ± 0.51
HAQ (Day 180, clarithromycin 500 mg twice a day for 8-14 days, then 500 to 2,000 mg per day, p < 0.0001 (Mann-Whitney U test)): 5.5 ± 0.51 (a)
ESR [1]: 27 ± 5.8 (c)
VAS [1]: 1.32 ± 0.44 (b)
side effect ascribable to the drug (human, in vivo): No significant side effect
patients not responding (number of patients out of 18): 4
patients responding to the therapy (number of patients out of 18): 14
reduction of the symptomatology (starting from the second week of treatment): significant reduction of the symptomatology
